In patent publication US20210120789A1, “Genetically Modified Non-Human Animals” (Shanghai RAAS Blood Products Co., Ltd., priority 2019, published 2021) one finds bleeding time data, which are given here for one substance.

For assay [1], the system named is human protein C knockin and factor IX deficient double mutant mice (hproC+/+, F9−/−). Description: Hemophilia B model, tail transection bleeding time. Type of assay: in vivo, mouse. The note with it: distal tail transected at 4 mm, injected into an orbital vein 5 min before transection, vs no factor injected. Here is the method:
(§1) For hemophilia A model, 8 to 10-week-old mice including WT mice, factor VIII deficient mice (F8−/−) and human protein C knockin and factor VIII deficient double mutant mice (hproC+/+, F8−/−) anesthetized using 80 mg/kg sodium pentobarbital i.p. were placed on their abdomen with the tail immersed in 37° C. saline. The distal tail of mice was transected at 4 mm (severe injury), and the bleeding was arterial and venous. Human factor VIII was injected into an orbital vein 5 min before the tail was transected. Controls were also performed in which no Human Factor VIII was injected. For hemophilia B model, the same procedures were conducted except that factor IX deficient mice (F9−/−), human protein C knockin and factor IX deficient double mutant mice (hproC+/+, F9−/−), and human factor IX were used. Bleeding time was measured following the tail-tip transection and immediate immersion of the tail in 10 ml of saline at 37° C. Bleeding time was set at cessation of blood leakage for at least 1 min. After 15 min, the tail was removed from the saline and the bleeding time measure was ended.

For assay [2], the system named is factor IX deficient mice (F9−/−). In words: Hemophilia B model, tail transection bleeding time. The note with it: distal tail transected at 4 mm, injected into an orbital vein 5 min before transection, vs no factor injected. The class given is in vivo, mouse. Here is the method: as §1

In the case of “human factor IX: human blood clotting factor IX, injected before tail transection in the hemophilia B model”, the bleeding time result in assay [1] and in assay [2] was “correct the prolonged bleeding time” each time.
